Records with an inconclusive call do not appear. Calls of active or inactive are those of the source. How the calls were made is not given here.
Test system: C. albicans CaCi-8 + fluconazole, Alamar Blue growth, 48 h
Assay: resistant C. albicans growth inhibition with fluconazole, dose response, CaCi-8 strain, Alamar Blue fluorescence (AID 2423)

Structure (SMILES) | EC50
Cc1nn2c([nH]c(=O)c3ccccc32)c1C=O | 961 nM
Cc1ccc(NCc2ccc(O)c3ncccc23)cc1 | 16000 nM
CCOc1cc(/C=C(\C#N)C(=O)NCC2CCCO2)ccc1OCC(N)=O (centres undefined) | > 16000 nM (inactive)
Cc1cc(C)nc(NS(=O)(=O)c2ccc(NC(=O)COc3ccccc3)cc2)n1 | > 15000 nM (inactive)
COc1ccc(O)c(/C=N/NC(=O)c2ccc(CSc3nc(C)cc(C)n3)cc2)c1 | 1760 nM
O=C(Nc1cccc(Cl)c1)Nc1nccs1 | 146 nM
Oc1ccc(/C=N/NP(=S)(c2ccccc2)c2ccccc2)c(O)c1O | 8830 nM
Cc1ccc(-c2nc3c(Cl)cc(Cl)cc3c(=O)n2O)cc1 | 1110 nM
O=C(Nc1sc2c(c1C(=O)c1ccc(Cl)cc1)CCCC2)c1cccnc1 | 615 nM
O=C(NC(=S)NNC(=O)c1cnccn1)c1ccc(Cl)cc1 | 3420 nM
CS/C(=N\S(=O)(=O)c1cccs1)Nc1ccc(Br)cc1F | 801 nM
Cc1ccc(C)c(-c2nnc(NC(=O)c3ccco3)o2)c1 | 957 nM
O=[N+]([O-])c1cccc(C=Nc2cccc3ccccc23)c1O | 12200 nM
CN1C(=O)/C(=C/c2cn(CC(=O)N3CCCCC3)c3ccccc23)NC1=S | > 15000 nM (inactive)
CCN=c1scc(C)n1/N=C/c1ccc(O)c(O)c1O | > 15000 nM (inactive)
CC(C)CCN1C(=O)c2ccc(C(=O)Nc3ccc(Br)cc3C(=O)O)cc2C1=O | 1270 nM
O=[N+]([O-])CC(c1ccccc1)P(=O)(c1ccccc1)c1ccccc1 (centres undefined) | 1890 nM
Cc1nc(NC(=O)c2c(-c3ccccc3)noc2C)sc1C(=O)N(C)C | 16300 nM
O=C1C2CCCN2C(c2ccccc2)N1c1ccccn1 (centres undefined) | > 16000 nM (inactive)
CCN(CC)c1ccc(/C=N/NC(=O)CNC(=O)C2COc3ccccc3O2)c(O)c1 (centres undefined) | 1110 nM
Cc1cc(C)c2nc(NNC(=O)c3cc(-c4cccs4)nc4ccccc34)sc2c1 | 804 nM
O=C(CCS(=O)(=O)c1cccc2nsnc12)N1CCN(C(=O)c2ccco2)CC1 | > 16000 nM (inactive)
CCN1/C(=C/C=C/c2oc3ccc(-c4ccccc4)cc3[n+]2CC)Oc2ccc(-c3ccccc3)cc21 | 589 nM
CC(C)c1ccc(OCC(=O)Nc2cccc(C(=O)Nc3ccccc3C(=O)O)c2)cc1 | > 15000 nM (inactive)
COc1ccnc(N2CCN(c3ccccc3)CC2)c1C#N | 859 nM
O=C(Nc1nnc(-c2ccc3c(c2)CCCC3)o1)c1ccc(Cl)cc1Cl | < 120 nM
Brc1ccc(CSc2nnc(-c3cnccn3)n2Cc2ccco2)cc1 | 2010 nM

Structure (SMILES) | EC50
CCc1nnc(NC(=O)CSc2nc(SC)ns2)s1 | 1490 nM
COc1ccc(/C=N/NC(=O)c2cc(O)c(O)c(O)c2)cc1Cn1cc([N+](=O)[O-])cn1 | 1440 nM
Cc1[nH]c2ccccc2c1C(=O)CCl | 175 nM
CN(CCCNC(=O)CCCOc1cc(=O)n(C)c2ccccc12)Cc1ccccc1 | > 16000 nM (inactive)
N#CC1=C(N)Oc2c(ccc3cccnc23)C1c1cccnc1 (centres undefined) | 8920 nM
O=C(Cc1nc2ccccc2s1)c1ccc(O)cc1O | 2860 nM
Cc1cccc(NC(=S)NNC(=O)c2csc(C(C)C)c2)c1 | 4240 nM
C=CCn1c(N)nc2ccccc21 | 2720 nM
O=C(CN1C(=O)COc2ccccc21)NCCCN1CCc2ccccc2C1 | > 15000 nM (inactive)
CCOC(=O)Cc1csc(NC(=O)CSc2nc3sc(C(=O)O)c(C)c3c(=O)[nH]2)n1 | > 16000 nM (inactive)
CC(C)C(=O)NC(c1cccs1)c1cc([N+](=O)[O-])c2cccnc2c1O (centres undefined) | 778 nM
NS(=O)(=O)c1cccc(NC(=S)NCc2ccc3c(c2)OCO3)c1 | > 16000 nM (inactive)
Cc1cc(SCC(=O)N/N=C/c2ccc(O)cc2O)c(C)cc1Br | 5010 nM
Cc1c(CCOC(=O)CC23CC4CC(CC(C4)C2)C3)sc[n+]1Cc1ccccc1 | 10600 nM
CCn1c(NC(=O)c2cccs2)nc2ccccc21 | 1280 nM
CC(C)(C)c1ccc(C(=O)NC(=S)NNC(=O)COc2ccccc2)cc1 | 2110 nM
CCOC(=O)c1c(NC(=O)C2Cc3ccccc3C(=O)O2)sc2c1CCCC2 (centres undefined) | > 16000 nM (inactive)
Cc1ccc(C)c(/C=C/C(=O)c2ccccc(=O)c2O)c1 | 1990 nM
COc1cccc(C2C(C(=O)c3cc4ccccc4o3)=C(O)C(=O)N2c2cc(C)on2)c1OC (centres undefined) | 154 nM
C=CCn1c(O)c(N=NC(=S)Nc2ccc(OC)cc2)c2ccccc21 | 7700 nM
CCn1c(=O)c(C(=O)NCc2cccnc2)c(O)c2ccccc21 | 9520 nM
COc1ccc(C(=O)NC(=S)NNC(=O)c2cnccn2)cc1 | 3540 nM
Oc1ccc(N=Nc2ccc3c(c2)OCCO3)c2cccnc12 | 804 nM
O=C(NNc1nc2ccc(Cl)cc2s1)c1cc(-c2cccs2)nc2ccccc12 | 400 nM
CCOc1ccccc1C1C2=C(COC2=O)Nc2cc3c(cc21)OCO3 (centres undefined) | > 16000 nM (inactive)
COc1ccc(C(=O)NNC(=S)NC(=O)c2cccc([N+](=O)[O-])c2)cc1 | 1800 nM
CCOc1cc(C=O)cc(N=Nc2cccc([N+](=O)[O-])c2)c1O | 639 nM

Source: PubChem BioAssay AID2423 (Broad Institute, 2010)
